Measurements taken from US6890951B2, “Treatment of addiction and addiction-related behavior” (Brookhaven Science Associates LLC, priority 1998, dated 2005).
“Also recorded” adds a separate entry of the source.

Columns and labels:
[1] = tested on: mesolimbic extracellular dopamine (DA), NAcc; assay: Microdialysis Example 15: extracellular dopamine after nicotine; assay type: in vivo
Description: (§1) Briefly, two days prior to the microdialysis experiments, siliconized guide cannulae were implanted targeting the NAcc (A=+1.5 mm, L=−1.0 mm, V=−5.6 mm). […] Dialysate samples were assayed for monoamine content by microbore high-pressure liquid chromatography (HPLC) coupled with electrochemical detection. […] Peak effects were analyzed with a one-way ANOVA, and post-hoc Bonferroni t-test of topiramate pretreated groups compared to saline pretreated controls provided ANOVA significance at a critical value of 0.05.

[2] = tested on: extracellular dopamine in the nucleus accumbens; assay: Microdialysis: Topiramate on cocaine-induced increases in nucleus accumbens dopamine; assay type: in vivo, rats; details: Topiramate 40 mg/kg i.p. 60 minutes prior to cocaine challenge
Description: In this example, we examined the effects of Topiramate sixty minutes prior to a cocaine challenge. The Topiramate was administered as an intraperitoneal injection, of 40 mg/kg, 60 minutes prior to a cocaine challenge.

Sprague-Dawley rats = assay: Gross locomotor activity (Optical Animal Activity Monitor); assay type: in vivo; details: for nicotine-induced increases in gross locomotor activity: topiramate 25 and 50 mg/kg
From the text: Locomotor activity was monitored throughout the entire period of study using an Optical Animal Activity Monitor (Bioanalytical Systems, West Lafayette, Ind.), which uses an optical sensor and records activity on both a chart recorder and via computer.
Locomotor data was collected with the Optical Animal Activity Monitor (OAAM, BAS, West Lafayette, Ind.). This system is attached to the microdialysis “Raturn®” machines and measures locomotor activity through an optical sensor attached directly to the animal. Output from the Raturn® gives a direct index of locomotor activity.

norepinephrine (NE) = assay: Microdialysis Example 15: extracellular norepinephrine after nicotine; assay type: in vivo
Description: as §1

serotonin (5-HT) = assay: Microdialysis Example 15: extracellular serotonin after nicotine; assay type: in vivo
Description: as §1

[3] = tested on: extracellular dopamine in the nucleus accumbens; assay: Microdialysis: Topiramate on nicotine-induced increases in nucleus accumbens dopamine (Example 14); assay type: in vivo, rats; details: Rattus norvegicus, ip, 60 mins pretreatment
Description: These studies were performed using the identical experimental technique we have successfully used in more than 5000 microdialysis studies in rats. Adult male Sprague-Dawley rats (200-300 g, Taconic Farms) were anesthetized with ketamine HCl/xylazine (100 mg/kg), and siliconized guide cannulae are stereotactically implanted in the NACC (1.5 mm anterior to bregma, 1 mm lateral to bregma, and 5.6 mm ventral from the cortical surface, Paxinos and Watson, 2nd edition, 1986) two days prior to the microdialysis experiment.
On the day of the microdialysis study, rats are placed in a bowl at least 2 hrs prior to fraction collection. […]
Ten minute samples are collected within the injection loop (50 μl), injected online and analyzed until three sequential injections differ by less than 10 percent. […]
As stated previously, the first three data points that differ by less than 10% are used as the basal levels, and subsequent measurements made following a challenge drug are converted to a percentage of these values. All subsequent analyses are determined using the ‘percentage of basal’ values.
Locomotor activity was monitored throughout the entire period of study using an Optical Animal Activity Monitor (Bioanalytical Systems, West Lafayette, Ind.), which uses an optical sensor and records activity on both a chart recorder and via computer. […]

## CC1(C)O[C@@H]2[C@@H](CO[C@@]3(COS(N)(=O)=O)OC(C)(C)O[C@@H]23)O1 [Topiramate]
[1]; topiramate 25 mg/kg
  reduction of the NAcc DA response to acute nicotine: 67%
[1]; topiramate 50 mg/kg
  reduction of the NAcc DA response to acute nicotine: 83%
[1]; topiramate 75 mg/kg, animals pretreated with nicotine for 14 days
  neurochemical sensitization (nicotine-induced NAcc DA release): dramatically reduced
[1]; topiramate alone
  extracellular basal DA concentrations: did not produce any significant changes
[2]
  attenuation of cocaine-induced increases in extracellular dopamine: approximately 15%
Sprague-Dawley rats; 25 and 50 mg/kg
  gross locomotor activity, topiramate alone: did not alter gross locomotor activity; also recorded: did not attenuate gross locomotor activity
Sprague-Dawley rats
  nicotine-induced increases in gross locomotor activity: significantly attenuate
Sprague-Dawley rats; listed as topiramate
  nicotine-induced increases in gross locomotor activity: markedly attenuated
Norepinephrine (NE); topiramate 25 mg/kg, read-out: inhibition of nicotine-induced increases in NE activity
  inhibition at 25 mg/kg: 53%
Norepinephrine (NE); topiramate 50 mg/kg, read-out: inhibition of nicotine-induced increases in NE activity
  inhibition at 50 mg/kg: 60%
Norepinephrine (NE); topiramate alone
  extracellular basal NE concentrations: did not produce any significant changes
Serotonin (5-HT); topiramate 25 or 50 mg/kg
  inhibition of nicotine-induced increases in 5-HT activity: not
Serotonin (5-HT); topiramate alone, non-significant
  increase in basal 5-HT activity: 20%
[3]; topiramate 25 mg/kg ip
  inhibition at 25 mg/kg: ~50%
[3]; topiramate 50 mg/kg ip
  inhibition at 50 mg/kg: ~70%
